Structures are written as SMILES. “And” between values parts separate entries of the source, which are not always exact repeats. Equal values may be shown once.

T1 sequence (A3EZJ3 whole entry): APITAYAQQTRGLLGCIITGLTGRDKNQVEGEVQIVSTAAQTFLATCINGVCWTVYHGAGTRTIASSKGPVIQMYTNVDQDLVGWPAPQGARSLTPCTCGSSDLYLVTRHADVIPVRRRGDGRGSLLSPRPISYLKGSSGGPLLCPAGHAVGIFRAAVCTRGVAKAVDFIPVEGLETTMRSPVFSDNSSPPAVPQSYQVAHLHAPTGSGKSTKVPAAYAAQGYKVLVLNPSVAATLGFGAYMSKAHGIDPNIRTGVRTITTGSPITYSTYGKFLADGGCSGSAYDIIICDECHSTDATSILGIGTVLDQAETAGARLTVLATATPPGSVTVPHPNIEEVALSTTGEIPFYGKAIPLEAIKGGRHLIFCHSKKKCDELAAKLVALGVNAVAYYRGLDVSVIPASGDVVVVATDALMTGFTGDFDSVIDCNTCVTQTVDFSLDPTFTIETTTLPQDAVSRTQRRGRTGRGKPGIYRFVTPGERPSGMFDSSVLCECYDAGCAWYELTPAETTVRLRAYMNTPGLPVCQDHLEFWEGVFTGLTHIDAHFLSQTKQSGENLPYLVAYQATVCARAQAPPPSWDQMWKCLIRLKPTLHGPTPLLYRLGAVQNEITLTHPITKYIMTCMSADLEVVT

The first assay addresses T1, NS3 (Hepatitis C virus, UniProt A3EZJ3). Description: Inhibitory concentration against hepatitis C virus (HCV) NS3 protease; Not active at >> 100 uM. Further details: species or system Hepacivirus hominis; call rule not given here.
For the molecule `COc1ccc2c(O[C@@H]3C[C@@H](C(=O)NC(CC(F)F)C(=O)NCCc4ccc(C(=O)O)cc4)N(C(=O)C(C)(C)C)C3)cc(-c3ccccc3)nc2c1` (stereo not given in full), the IC50 entry is “Not Active”.

For another assay, the target named is T1, NS3. Description: Inhibitory concentration against hepatitis C virus (HCV) NS3 protease. Further details: species or system Hepacivirus hominis.
Molecule `COc1ccc2c(O[C@@H]3C[C@@H](C(=O)NC(CC(F)F)C(=O)NCCc4c(F)cc(C(=O)O)cc4F)N(C(=O)[C@@H](NC(=O)OC(C)(C)C)C(C)(C)C)C3)cc(-c3ccccc3)nc2c1` (stereo not given in full) yielded an IC50 of 54 nM.

The molecule `COc1ccc2c(O[C@@H]3C[C@@H](C(=O)NC(CC(F)F)C(=O)NCCc4ccc(C(=O)O)cc4)N(C(=O)[C@@H](O)C(C)C)C3)cc(-c3ccccc3)nc2c1` (stereo not given in full) had an IC50 of 11000 nM.

In turn, `COc1ccc2c(O[C@@H]3C[C@@H](C(=O)NC(CC(F)F)C(=O)NCCc4c(F)cc(C(=O)O)cc4F)N(C(C)=O)C3)cc(-c3ccccc3)nc2c1` (stereo not given in full) came in with an IC50 of 38000 nM.

Turning to `C=CC1C[C@]1(NC(=O)C1C[C@@H](Oc2ccnc3ccccc23)CN1C(=O)[C@@H](NC(=O)OC(C)(C)C)C(C)(C)C)C(=O)O` (stereo not given in full), the IC50 was 330 nM and < 500 nM.

`COc1ccc2c(O[C@@H]3C[C@@H](C(=O)NC(CC(F)F)C(=O)NCCc4ccc(C(=O)O)cc4)N(C(=O)[C@@H](NC(=O)OCC(C)C)C(C)C)C3)cc(-c3ccccc3)nc2c1` (stereo not given in full) gave an IC50 of 400 nM.

The molecule `C=CC1C[C@]1(NC(=O)C1C[C@@H](Oc2cc(-c3ccccc3)nc3cc(OC)ccc23)CN1C(=O)[C@@H](NC(=O)OC(C)(C)C)C(C)(C)C)C(=O)O` (stereo not given in full) had an IC50 of 25 nM.

`COc1ccc2c(O[C@@H]3CC(C(=O)NC(CC(F)F)C(=O)O)N(C(=O)[C@@H](NC(=O)OC(C)(C)C)C(C)(C)C)C3)cc(-c3ccccc3)nc2c1` (stereo not given in full) came in with an IC50 of 180 nM.

The next assay concerns the target T1, NS3. As to the kind of experiment: Inhibitory concentration against hepatitis C virus (HCV) NS3 protease; Not active. Further details: species or system Hepacivirus hominis.
As to `C=CC1CC1(NC(=O)C1C[C@@H](Oc2ccnc3ccccc23)CN1C(=O)[C@@H](NC(=O)OC(C)(C)C)C(C)(C)C)C(=O)NCCc1ccc(C(=O)O)cc1` (stereo not given in full), the IC50 entry is “Not Active”.

For `C=CC1C[C@@]1(NC(=O)C1C[C@@H](Oc2ccnc3ccccc23)CN1C(=O)[C@@H](NC(=O)OC(C)(C)C)C(C)(C)C)C(=O)O` (stereo not given in full), the IC50 result is given as “Not Active”.

What is called IC50 is the concentration that gives 50% inhibition. High values mean weaker potency in that assay, low ones greater potency in that assay.

The record behind these values is ChEMBL document CHEMBL1136161, “Novel, potent phenethylamide inhibitors of the hepatitis C virus (HCV) NS3 protease: probing the role of P2 aryloxyprolines with hybrid structures” (Bioorg Med Chem Lett, 2003).
